# Assay results as given in patent US20240148821A1, “PHARMACEUTICAL USE OF CYCLIC PEPTIDE COMPOUND” (CHUGAI SEIYAKU KABUSHIKI KAISHA, priority 2021, published 2024).
# Numbered stars: 1 amine (or outer) side, 2 acyl side, 3 side chain; on linkers, the order of the positions; unused ones are H or OH. Bridge positions count the residues as written; N and C are the ends. Square brackets hold non-standard residues; d marks the D form. Peptide text beside a SMILES is read from it. * marks the point of attachment. hPhe(3-Cl-4-CF3) = N[C@@H](CCc1ccc(C(F)(F)F)c(Cl)c1)C(=O)O; X25 = COc1ccc(C[C@@H](C(=O)[*:2])N(C)[*:1])cn1; NMeAbu(4,4,4-F3) = CN[C@@H](CC(F)(F)F)C(=O)O; NMePhe(4-Cl) = CN[C@@H](Cc1ccc(Cl)cc1)C(=O)O; NMePhe(3-F) = CN[C@@H](Cc1cccc(F)c1)C(=O)O; NMePhe(4-F) = CN[C@@H](Cc1ccc(F)cc1)C(=O)O; NMeAla(cPent) = CN[C@@H](CC1CCCC1)C(=O)O; NMeGly(cPent) = CN[C@H](C(=O)O)C1CCCC1; Phe(3-I) = N[C@@H](Cc1cccc(I)c1)C(=O)O; Phe(4-F) = N[C@@H](Cc1ccc(F)cc1)C(=O)O; Pro(4,4-F2) = O=C(O)[C@@H]1CC(F)(F)CN1; NMeCha = CN[C@@H](CC1CCCCC1)C(=O)O; NMeChg = CN[C@H](C(=O)O)C1CCCCC1; NMeD = CN[C@@H](CC(=O)O)C(=O)O; NMeL = CN[C@@H](CC(C)C)C(=O)O; Cba = N[C@@H](CC1CCC1)C(=O)O; NPrAla = CCCN[C@@H](C)C(=O)O; NMeV = CN[C@H](C(=O)O)C(C)C; d(β3hA) = C[C@@H](N)CC(=O)O; Morpholide = C1CN(*)CCO1; NMeA = CN[C@@H](C)C(=O)O; NMeAib = CNC(C)(C)C(=O)O; Nle = CCCC[C@H](N)C(=O)O; Piperidide = C1CCN(*)CC1; Pra = C#CC[C@H](N)C(=O)O; Pyrrolidide = C1CCN(*)C1; Ac5c = NC1(C(=O)O)CCCC1; Aze = O=C(O)[C@@H]1CCN1; Sar = CNCC(=O)O
# System: Human pancreatic cancer cell line AsPC-1 (G12D mutation Kras)
# Assay: AsPC-1 cell growth inhibition (AsPC-1 CGI)
# Format: cell-based
# Conditions: read-out: AsPC-1 cell growth inhibition, 50% growth inhibitory concentration (IC50 value); 96 hours, CellTiter-Glo, values classified in ranges
# Protocol: Test compounds were serially dilated with dimethyl sulfoxide, and 200 nL was then dispensed to a U-bottom 96-well plate using Labcyte Echo. […] The cell suspension was dispensed to a. plate containing a test compound at 100 μL per well and incubated at 37° C. in a 5% carbon dioxide gas incubator. 96 hours later, 80 μL of CellTiter-Glo (Promega) was added to each well and fluorescence was measured.
row,SMILES,IC50
1,CC[C@H](C)[C@@H]1NC(=O)[C@H](CC(C)C)N(C)C(=O)C[C@@H](C(=O)N2CCCCC2)N(C)C(=O)[C@H](CC(C)C)NC(=O)C(C)(C)N(C)C(=O)[C@H](Cc2ccc(F)cc2)NC(=O)[C@H](Cc2cccc(I)c2)NC(=O)CN(C)C(=O)[C@H](CC2CCCCC2)N(C)C(=O)CN(C)C(=O)CN(C)C1=O [Compound 711] ([NMeL]I[Sar][Sar][NMeCha][Sar][Phe(3-I)][Phe(4-F)][NMeAib]L[NMeD]-Piperidide; lactam N-11),> 500 nM
2,"CC[C@H](C)[C@@H]1NC(=O)[C@H](CC(F)(F)F)N(C)C(=O)C[C@@H](C(=O)N2CCCC2)N(C)C(=O)[C@H](C2CCCCC2)N(C)C(=O)C2(CCCC2)NC(=O)[C@@H]2CC(F)(F)CN2C(=O)[C@H](CCc2ccc(C(F)(F)F)c(Cl)c2)NC(=O)CN(C)C(=O)[C@H](CC2CCCCC2)N(C)C(=O)CN(C)C(=O)CN(C)C1=O [Compound 1357] ([NMeAbu(4,4,4-F3)]I[Sar][Sar][NMeCha][Sar][hPhe(3-Cl-4-CF3)][Pro(4,4-F2)][Ac5c][NMeChg][NMeD]-Pyrrolidide; lactam N-11)",≤ 20 nM
3,CC[C@H](C)[C@@H]1NC(=O)[C@H](CC(C)C)N(C)C(=O)C[C@@H](C(=O)N2CCCCC2)N(C)C(=O)[C@H](C2CCCCC2)N(C)C(=O)C2(CCCC2)NC(=O)[C@H](Cc2ccc(OC)nc2)N(C)C(=O)[C@H](CCc2ccc(C(F)(F)F)c(Cl)c2)NC(=O)CN(C)C(=O)[C@H](CC2CCCCC2)N(C)C(=O)[C@@H]2CCN2C(=O)CN(C)C1=O [Compound 614] ([NMeL]I[Sar][Aze][NMeCha][Sar][hPhe(3-Cl-4-CF3)][X25][Ac5c][NMeChg][NMeD]-Piperidide; lactam N-11),> 500 nM
4,CC[C@H](C)[C@@H]1NC(=O)[C@H](CC(C)C)N(C)C(=O)C[C@@H](C(=O)N2CCOCC2)N(C)C(=O)[C@H](C(C)C)N(C)C(=O)C2(CCCC2)NC(=O)[C@@H]2CCCN2C(=O)[C@H](CCc2ccc(C(F)(F)F)c(Cl)c2)NC(=O)CN(C)C(=O)[C@H](CC2CCCC2)N(C)C(=O)CN(C)C(=O)CN(C)C1=O [Compound 1848] ([NMeL]I[Sar][Sar][NMeAla(cPent)][Sar][hPhe(3-Cl-4-CF3)]P[Ac5c][NMeV][NMeD]-Morpholide; lactam N-11),> 500 nM
5,CC[C@H](C)[C@@H]1NC(=O)[C@H](C)N(C)C(=O)C[C@@H](C)NC(=O)[C@H](C2CCCC2)N(C)C(=O)C2(CCCC2)NC(=O)[C@@H]2CCCN2C(=O)[C@H](CCc2ccc(C(F)(F)F)c(Cl)c2)NC(=O)CN(C)C(=O)[C@H](CC2CCCCC2)N(C)C(=O)CN(C)C(=O)CN(C)C1=O [Compound 1478] (cyclo([Ac5c][NMeGly(cPent)][d(β3hA)][NMeA]I[Sar][Sar][NMeCha][Sar][hPhe(3-Cl-4-CF3)]P)),> 500 nM
6,CC[C@H](C)[C@@H]1NC(=O)[C@H](CC(C)C)N(C)C(=O)C[C@@H](C)NC(=O)[C@H](C(C)C)N(C)C(=O)C2(CCCC2)NC(=O)[C@@H]2CCCN2C(=O)[C@H](CCc2ccc(C(F)(F)F)c(Cl)c2)NC(=O)CN(C)C(=O)[C@H](Cc2cccc(F)c2)N(C)C(=O)CN(C)C(=O)CN(C)C1=O [Compound 1556] (cyclo([Ac5c][NMeV][d(β3hA)][NMeL]I[Sar][Sar][NMePhe(3-F)][Sar][hPhe(3-Cl-4-CF3)]P)),> 500 nM
7,CCCC[C@@H]1NC(=O)[C@H](Cc2cccc(I)c2)NC(=O)CN(C)C(=O)[C@H](Cc2ccc(Cl)cc2)N(C)C(=O)CN(C)C(=O)CN(C)C(=O)[C@H]([C@@H](C)CC)NC(=O)[C@H](CC(C)C)N(C)C(=O)C[C@@H](C(=O)N2CCCCC2)N(C)C(=O)[C@H](CC2CCC2)NC(=O)C(C)(C)N(C)C1=O [Compound 1422] ([NMeL]I[Sar][Sar][NMePhe(4-Cl)][Sar][Phe(3-I)][Nle][NMeAib][Cba][NMeD]-Piperidide; lactam N-11),> 500 nM
8,CCCN1C(=O)C[C@@H](C)NC(=O)[C@H](C(C)C)N(C)C(=O)C2(CCCC2)NC(=O)[C@@H]2CCCN2C(=O)[C@H](CCc2ccc(C(F)(F)F)c(Cl)c2)NC(=O)CN(C)C(=O)[C@H](CC2CCCCC2)N(C)C(=O)CN(C)C(=O)CN(C)C(=O)[C@H]([C@@H](C)CC)NC(=O)[C@@H]1C [Compound 114] (cyclo([Ac5c][NMeV][d(β3hA)][NPrAla]I[Sar][Sar][NMeCha][Sar][hPhe(3-Cl-4-CF3)]P)),> 500 nM
9,CC[C@H](C)[C@@H]1NC(=O)[C@H](CC(C)C)NC(=O)C[C@@H](C(=O)N2CCCCC2)N(C)C(=O)[C@H](C(C)C)N(C)C(=O)C2(CCCC2)NC(=O)[C@@H]2CCCN2C(=O)[C@H](CCc2ccc(C(F)(F)F)c(Cl)c2)NC(=O)CN(C)C(=O)[C@H](CC2CCCCC2)N(C)C(=O)[C@@H]2CCN2C(=O)[C@H](C)N(C)C1=O [Compound 368] (LI[NMeA][Aze][NMeCha][Sar][hPhe(3-Cl-4-CF3)]P[Ac5c][NMeV][NMeD]-Piperidide; lactam N-11),> 500 nM
10,C#CC[C@@H]1NC(=O)[C@H](Cc2cccc(I)c2)NC(=O)CN(C)C(=O)[C@H](Cc2ccc(F)cc2)N(C)C(=O)CN(C)C(=O)CN(C)C(=O)[C@H]([C@@H](C)CC)NC(=O)[C@H](CC(C)C)N(C)C(=O)C[C@@H](C(=O)N2CCCCC2)N(C)C(=O)[C@H](CC(C)C)NC(=O)C(C)(C)N(C)C1=O [Compound 1327] ([NMeL]I[Sar][Sar][NMePhe(4-F)][Sar][Phe(3-I)][Pra][NMeAib]L[NMeD]-Piperidide; lactam N-11),> 500 nM
